Results from patent publication EP4775574A1, “FURAN RING-CONTAINING COMPOUND, PHARMACEUTICAL COMPOSITION THEREOF, AND USE THEREOF” (Wuhan Xirui Pharmaceutical Technology Co., Ltd, priority 2023, dated 2025).

Columns and labels:
Assay type in all cases: cell-based
Nav1.4 = Nav1.4 (Homo sapiens, UniProt P35499); assay: Sodium channel selectivity test, patch-clamp, Nav1.4; details: read-out: Nav1.4 Inhibition rate (%)
Source text: (§1) Test Example 3: Selectivity test of the compounds of the present disclosure on sodium channels • 1. Experimental objective: The effects of the compounds on the current of the voltage-gated sodium channel (NaV) subtypes 1.1-1.7 were detected by patch-clamp technique • 2. Experimental materials and instruments • 2.1 Cell lines: CHO/HEK293 cell lines stably expressing Nav1.1-1.7 sodium channels, constructed in-house by the laboratory of Beijing ICE Bioscience Co., Ltd., (Reference: Jarvis MF, Honore P, Shieh CC, Chapman M, Joshi S, Zhang XF, Kort M, Carroll W, Marron B, Atkinson R, Thomas J, Liu D, Krambis M, Liu Y, McGaraughty S, Chu K, Roeloffs R, Zhong C, Mikusa JP, Hernandez G, Gauvin D, Wade C, Zhu C, Pai M, Scanio M, Shi L, Drizin I, Gregg R, Matulenko M, Hakeem A, Gross M, Johnson M, Marsh K, Wagoner PK, Sullivan JP, Faltynek CR, Krafte DS. A-803467, a potent and selective Nav1.8 sodium channel blocker, attenuates neuropathic and inflammatory pain in the rat. Proc Natl Acad Sci U S A. 2007 May 15;104(20):8520-5. doi: 10.1073/pnas.0611364104. Epub 2007 May 2. PMID: 17483457; PMCID: PMC1895982.), gene information Nav1.1: NM_006920; Nav1.2: NM_001040142; Nav1.3: NM_006922; Nav1.4: NM_000334; Nav1.5: NM198056; Nav1.6: NM014191; Nav1.7: […]. • 2.2 Compounds: Dissolved in DMSO, with sample concentration prepared at 30 µM. • 3. Experimental methods • 3.1 Cell culture • (1) Maintenance medium: CHO cells were cultured in HAM'S/F-12 medium containing 10% fetal bovine serum, 100 µg/mL Zeocin, and 10 µg/mL Blasticidin, under conditions of 37°C incubation temperature and 5% carbon dioxide concentration. HEK-293 cells were cultured in DMEM medium containing 10% fetal bovine serum and 800 µg/mL G418; the culture temperature was 37°C, and the carbon dioxide concentration was 5%. • (2) Cell passage: The old medium was removed, and the cells were washed once with PBS, then 1 mL of 0.25%-Trypsin-EDTA solution was added and incubated at 37°C for approximately 1.5 min. When the cells were detached from the bottom of the dish, about 5 mL of preheated complete medium at 37°C was added. […]

Nav1.1 = Nav1.1 (Homo sapiens, UniProt P35498); assay: Sodium channel selectivity test, patch-clamp, Nav1.1; details: read-out: Nav1.1 Inhibition rate (%)
Source text: as §1

Nav1.8 sodium channel = molecular target: T1, Nav1.8 sodium channel (Homo sapiens, UniProt Q9Y5Y9); assay: Blocking activity against sodium channel 1.8 (Nav1.8), whole-cell patch-clamp, inhibition rate; details: CHO cell line stably expressing Nav1.8; patch-clamp; test concentration not given
T1 construct: host or cells: CHO
Procedure: Experimental objective: The effects of the compounds on the current of the voltage-gated sodium channel (NaV) 1.8 subtype were detected by patch-clamp technique • 2. […] When the cells were detached from the bottom of the dish, about 5 mL of preheated complete medium at 37°C was added. The cell suspension was gently pipetted up and down to separate the aggregated cells. The cell suspension was transferred to a sterile centrifuge tube and centrifuged at 1000 rpm for 5 min to collect the cells. […] First, the voltage was stepped from -130 mV to -10 mV in 10 mV increments for 5 s, and then a 0 mV depolarizing pulse was applied to obtain the half-inactivation voltage (Vhalf). The resting state and half-inactivated state of the sodium current were detected by using a double-pulse protocol. First, the first depolarizing pulse (TP1) was applied to 0 mV for 50 ms to detect the sodium current in the resting state. Then, the voltage was adjusted to Vhalf and maintained for 5 s, followed by restoration of the voltage to -120 mV and maintenance for 20 ms, after which the second depolarizing pulse (TP2) was applied to 0 mV for 50 ms to detect the sodium current in the half-inactivated state. Finally, the voltage was restored to the clamping voltage of -120 mV. Data were repeatedly collected every […] to observe the effect of the drug on the peak values of sodium currents in the two different states. Experimental data were collected by the EPC 10 amplifier (HEKA) and stored in the PatchMaster (HEKA) software. • (2) During patch clamp operation, capillary glass tubes were first pulled into recording electrodes using a microelectrode puller, then the electrodes filled with intracellular solution were installed into the microelectrode holder. Under an inverted microscope, the micromanipulator was used to bring the recording electrode into contact with the cell, and negative pressure suction was applied to form a GΩ seal. At this time, fast capacitance compensation was performed, and then negative pressure was continuously applied to rupture the cell membrane and form the whole-cell recording mode. Finally, slow capacitance compensation was performed, and related parameters were recorded. Leak compensation was not applied. • (3) When the sodium current of whole-cell recording became stable, drug administration was started, and each drug concentration was applied for 5 min (or until the current became stable) before the next concentration was tested. The coverslip coated with cells was placed in the recording bath under an inverted microscope, and the blank control external solution and the test compound working solution were perfused through the recording bath in sequence from low concentration to high concentration by gravity, thereby acting on the cells, while a peristaltic pump was used for liquid exchange during recording. The current detected in the external solution without compounds for each cell was used as its own control group. Each concentration was independently tested twice. All electrophysiological experiments were conducted at room temperature.
First, the current after the effect of each drug concentration and the blank control current were normalized, then the inhibition rate corresponding to each drug concentration was calculated, that is, (1-Icompound /Icontrol), and the mean, standard deviation (SD), and standard error (SE) of the inhibition rate for each concentration were calculated, and the data were expressed as mean ± SE.

Nav1.2 = Nav1.2 (Homo sapiens, UniProt Q99250); assay: Sodium channel selectivity test, patch-clamp, Nav1.2; details: read-out: Nav1.2 Inhibition rate (%)
Source text: as §1

Nav1.6 = Nav1.6 (Homo sapiens, UniProt Q9UQD0); assay: Sodium channel selectivity test, patch-clamp, Nav1.6; details: read-out: Nav1.6 Inhibition rate (%)
Source text: as §1

Nav1.7 = Nav1.7 (Homo sapiens, UniProt Q15858); assay: Sodium channel selectivity test, patch-clamp, Nav1.7; details: read-out: Nav1.7 Inhibition rate (%)
Nav1.7, sequence (Q15858 whole entry): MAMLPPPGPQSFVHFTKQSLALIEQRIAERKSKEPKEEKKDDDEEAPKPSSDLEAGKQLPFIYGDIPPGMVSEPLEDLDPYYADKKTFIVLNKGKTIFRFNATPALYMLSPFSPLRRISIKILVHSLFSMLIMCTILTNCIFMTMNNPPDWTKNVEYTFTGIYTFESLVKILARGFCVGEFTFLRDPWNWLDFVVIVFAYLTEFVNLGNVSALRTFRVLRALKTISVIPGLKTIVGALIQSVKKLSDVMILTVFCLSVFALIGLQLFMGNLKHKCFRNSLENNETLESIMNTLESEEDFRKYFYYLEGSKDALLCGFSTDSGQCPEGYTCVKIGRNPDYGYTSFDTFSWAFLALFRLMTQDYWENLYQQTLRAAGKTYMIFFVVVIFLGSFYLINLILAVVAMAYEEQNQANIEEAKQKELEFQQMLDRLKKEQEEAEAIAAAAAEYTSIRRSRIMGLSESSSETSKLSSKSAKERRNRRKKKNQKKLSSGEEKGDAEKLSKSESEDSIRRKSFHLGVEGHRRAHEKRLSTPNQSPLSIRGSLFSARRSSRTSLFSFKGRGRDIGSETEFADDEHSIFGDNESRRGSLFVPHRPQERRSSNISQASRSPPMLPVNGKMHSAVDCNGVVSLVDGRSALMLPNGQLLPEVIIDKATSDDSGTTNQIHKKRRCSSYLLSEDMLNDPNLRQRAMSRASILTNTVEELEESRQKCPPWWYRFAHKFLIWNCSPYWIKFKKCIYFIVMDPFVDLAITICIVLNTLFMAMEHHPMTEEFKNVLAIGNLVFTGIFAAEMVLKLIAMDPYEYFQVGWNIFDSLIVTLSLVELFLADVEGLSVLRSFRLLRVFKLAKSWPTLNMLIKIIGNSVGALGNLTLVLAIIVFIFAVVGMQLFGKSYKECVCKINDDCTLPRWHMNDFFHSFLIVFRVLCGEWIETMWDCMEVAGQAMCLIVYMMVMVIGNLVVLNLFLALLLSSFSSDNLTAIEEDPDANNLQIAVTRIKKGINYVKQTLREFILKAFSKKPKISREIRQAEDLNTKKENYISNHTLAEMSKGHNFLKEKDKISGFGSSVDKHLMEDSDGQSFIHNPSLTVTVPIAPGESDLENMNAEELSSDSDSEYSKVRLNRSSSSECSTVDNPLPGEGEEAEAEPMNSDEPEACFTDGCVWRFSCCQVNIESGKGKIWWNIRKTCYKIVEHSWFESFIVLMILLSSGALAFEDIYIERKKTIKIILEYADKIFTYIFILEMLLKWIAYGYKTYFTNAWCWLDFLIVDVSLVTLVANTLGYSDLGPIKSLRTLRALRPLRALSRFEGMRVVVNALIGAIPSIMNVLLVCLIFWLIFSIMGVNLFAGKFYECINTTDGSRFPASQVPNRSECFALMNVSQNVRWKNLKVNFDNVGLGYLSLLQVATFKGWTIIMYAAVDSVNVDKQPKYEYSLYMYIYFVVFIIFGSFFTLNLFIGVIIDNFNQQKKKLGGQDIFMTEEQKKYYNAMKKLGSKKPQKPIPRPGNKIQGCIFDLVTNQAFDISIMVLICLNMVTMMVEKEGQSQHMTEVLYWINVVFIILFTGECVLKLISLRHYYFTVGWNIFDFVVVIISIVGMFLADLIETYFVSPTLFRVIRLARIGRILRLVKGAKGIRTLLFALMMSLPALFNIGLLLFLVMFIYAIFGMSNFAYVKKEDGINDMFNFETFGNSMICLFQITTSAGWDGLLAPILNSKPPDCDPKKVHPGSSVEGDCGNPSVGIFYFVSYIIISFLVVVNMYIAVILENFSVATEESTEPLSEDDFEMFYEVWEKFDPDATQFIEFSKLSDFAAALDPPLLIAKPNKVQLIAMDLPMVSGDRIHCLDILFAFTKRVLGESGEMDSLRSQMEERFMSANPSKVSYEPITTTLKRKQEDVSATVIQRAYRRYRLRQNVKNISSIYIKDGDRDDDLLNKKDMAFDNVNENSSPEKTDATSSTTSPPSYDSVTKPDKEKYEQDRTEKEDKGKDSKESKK
Source text: as §1

Nav1.4, sequence (P35499 whole entry): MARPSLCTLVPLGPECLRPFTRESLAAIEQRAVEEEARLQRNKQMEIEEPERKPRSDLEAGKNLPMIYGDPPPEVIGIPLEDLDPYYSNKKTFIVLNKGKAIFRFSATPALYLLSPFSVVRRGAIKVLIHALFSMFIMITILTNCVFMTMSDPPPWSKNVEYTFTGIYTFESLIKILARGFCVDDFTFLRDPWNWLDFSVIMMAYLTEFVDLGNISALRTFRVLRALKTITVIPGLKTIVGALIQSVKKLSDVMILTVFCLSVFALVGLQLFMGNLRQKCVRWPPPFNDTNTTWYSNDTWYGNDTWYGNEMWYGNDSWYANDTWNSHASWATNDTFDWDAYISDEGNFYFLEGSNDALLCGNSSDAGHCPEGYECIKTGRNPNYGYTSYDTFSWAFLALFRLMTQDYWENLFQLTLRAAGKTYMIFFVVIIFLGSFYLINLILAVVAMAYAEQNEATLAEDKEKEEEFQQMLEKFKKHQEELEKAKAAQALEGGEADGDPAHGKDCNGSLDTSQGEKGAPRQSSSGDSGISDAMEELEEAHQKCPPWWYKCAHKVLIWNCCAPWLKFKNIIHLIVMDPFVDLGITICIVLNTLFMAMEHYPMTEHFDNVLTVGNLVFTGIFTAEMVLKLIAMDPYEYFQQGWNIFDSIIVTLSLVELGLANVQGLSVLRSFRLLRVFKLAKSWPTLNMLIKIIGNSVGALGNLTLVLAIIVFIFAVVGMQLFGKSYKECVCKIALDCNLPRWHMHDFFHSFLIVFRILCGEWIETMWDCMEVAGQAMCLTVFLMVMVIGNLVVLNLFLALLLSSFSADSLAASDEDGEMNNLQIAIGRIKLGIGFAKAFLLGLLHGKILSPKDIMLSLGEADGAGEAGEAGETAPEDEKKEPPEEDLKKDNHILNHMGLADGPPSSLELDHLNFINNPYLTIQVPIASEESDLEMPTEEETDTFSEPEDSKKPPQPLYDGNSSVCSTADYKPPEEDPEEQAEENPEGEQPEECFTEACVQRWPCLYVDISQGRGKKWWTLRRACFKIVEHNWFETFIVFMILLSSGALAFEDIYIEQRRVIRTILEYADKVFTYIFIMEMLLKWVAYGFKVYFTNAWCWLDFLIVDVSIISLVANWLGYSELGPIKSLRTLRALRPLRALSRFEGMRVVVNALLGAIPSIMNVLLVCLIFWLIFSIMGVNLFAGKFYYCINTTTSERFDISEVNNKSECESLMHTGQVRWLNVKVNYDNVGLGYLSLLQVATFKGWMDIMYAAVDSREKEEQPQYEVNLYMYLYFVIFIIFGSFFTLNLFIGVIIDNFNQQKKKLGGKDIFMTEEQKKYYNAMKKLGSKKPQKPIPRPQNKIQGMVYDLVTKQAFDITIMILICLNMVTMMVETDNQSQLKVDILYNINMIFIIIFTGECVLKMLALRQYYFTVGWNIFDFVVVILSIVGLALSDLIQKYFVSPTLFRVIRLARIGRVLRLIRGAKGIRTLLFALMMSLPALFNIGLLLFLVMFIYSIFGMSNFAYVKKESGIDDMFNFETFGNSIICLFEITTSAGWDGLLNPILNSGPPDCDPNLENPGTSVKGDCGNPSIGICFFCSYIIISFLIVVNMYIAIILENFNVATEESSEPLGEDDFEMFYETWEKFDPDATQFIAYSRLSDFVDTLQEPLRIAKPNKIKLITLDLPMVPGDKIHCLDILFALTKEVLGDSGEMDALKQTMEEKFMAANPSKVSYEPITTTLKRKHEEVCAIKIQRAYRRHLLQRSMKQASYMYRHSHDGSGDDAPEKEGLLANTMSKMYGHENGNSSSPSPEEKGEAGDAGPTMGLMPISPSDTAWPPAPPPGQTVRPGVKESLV

Row | SMILES | inhibition at 30 µM (Nav1.4) [%] | inhibition at 30 µM (Nav1.1) [%] | Inhibition rate (%) (Nav1.8 sodium channel) | inhibition at 30 µM (Nav1.2) [%] | inhibition at 30 µM (Nav1.6) [%] | inhibition at 30 µM (Nav1.7) [%]
1 | COc1c([C@H]2[C@H](C(=O)Nc3ccnc(C(N)=O)c3)O[C@@](C)(C(F)(F)F)[C@H]2C)ccc(F)c1F [Reference compound, reference compound] | 83.6 | 57.7 | 94.49 | 53.6 | 42.9 | 11.1
2 | C[C@H]1[C@@H](c2ccc(F)c(F)c2OC2COC2)[C@H](C(=O)Nc2ccc(F)c(C(=N)NO)c2)O[C@@]1(C)C(F)(F)F [Example 11] | 8.45 | 1.96 | 87.35 | 16 | 19.5 | 14.8
3 | COCCOc1c([C@H]2[C@H](C(=O)Nc3ccc(F)c(C(=N)NO)c3)O[C@@](C)(C(F)(F)F)[C@H]2C)ccc(F)c1F [Example 10] | 75.4 | 28.4 | 99.65 | 32.8 | 36 | 20.8
